From US20100143456A1, “MODEL MEMBRANE SYSTEMS” (priority 1999, published 2010)

Tested on: P815 cells
Assay: FACS analysis of hexa-histidine-tagged B7.1 and CD40 engrafted onto P815 cells via incorporated lipid
Assay type: cell-based, murine
Details: 0.1 mM lipid 30 min 37° C., then 6His B7.1 and CD40 each ~20 μg/ml, streptavidin-FITC
Experimental: FIG. 2 is the fluorescence profile, as measured by fluorescence-activated cell sorting, of p815 cells engrafted with biotinylated and hexa-histidine-tagged CD40 and B7.1 molecules and then stained with streptavidin-FITC.
Cultured P815 tumor cells were washed twice in PBS to remove proteins from the culture media and suspended to 1×10^7 cells/ml in PBS. The cells were then aliquoted into 96-well V-bottom Seroeluster plates (Costar, Corning, N.Y.) at […] and incubated with 125 μM NTA-DTDA (alone or as a mixture with other lipids as indicated) or 125 μM DMPC (control) in PBS containing 125 μM Zn^2+, for 40 min at 37° C. […] The relative level of NTA-DTDA incorporated was routinely assessed by FACS analysis (see below) after incubating the cells with biotinylated 6His peptide (B-6His) (0.2 μg/ml) for 30 min at 4° C., washing twice with PBS-0.1% v/v BSA, and then staining with streptavidin-FITC. The cells were incubated with streptavidin-FITC (33 μg/ml) in PBS containing 1% v/v BSA (PBS-1% v/v-BSA) for 30 min at 4° C., washed three times with PBS-1% v/v BSA, fixed with 2% v/v paraformaldehyde in PBS, and then analyzed for FITC-fluorescence by FACS. […]
The histograms in FIG. 2 show fluorescence-activated cell sorting (FACS) profiles of murine mastocytoma P815 cells carrying engrafted recombinant hexa-histidine-tagged murine B7.1 and CD40. […]

SMILES | fluorescence of P815 cells relative to cells pre-incubated with DMPC (Control) (biotinylated anti-B7.1 or anti-CD40 mAb) | level of fluorescence after staining with either monoclonal antibody (biotinylated mAb)
CCCCCCCCCCCCCCN(CCCCCCCCCCCCCC)C(=O)CCC(=O)NCCCC[C@@H](C(=O)O)N(CC(=O)O)CC(=O)O [NTA-DTDA, N^α,N^αbis[carboxymethyl]-N^ε[(DTDA)suc]-L lysine] | 10-100 fold | –
CCCCCCCCCCCCCC(=O)OC[C@H](COP(=O)([O-])OCC[N+](C)(C)C)OC(=O)CCCCCCCCCCCCC [DMPC, di-myristoyl-phosphatidylcholine] | – | low level of fluorescence
